Experimental data from PubChem BioAssay AID248 (DTP/NCI, 2004).
Toxic doses and inconclusive results are not listed. No stated cut-off is given here; in the data, active means T/C of 150% or more; inactive means T/C below 125%.

System: L1210 leukemia ip in BDF1 mice, survival T/C
Assay: NCI In Vivo Anticancer Drug Screen. Data for tumor model L1210 Leukemia (intraperitoneal) in B6D2F1 (BDF1) mice
Details: endpoint: mean survival time, higher = longer survival
How it was run: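 In this screen, tumor-bearing mice given compound are compared to those given vehicle, and their survival values are reported as a treated-to-control quotient.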

[1] = dose: 12.5 mg/kg/injection, schedule: Q01DX009 (ip), vehicle: saline
[2] = dose: 100.0 mg/kg/injection, schedule: Q01DX001 (ip), vehicle: saline
[3] = dose: 200.0 mg/kg/injection, schedule: Q01DX001 (ip), vehicle: saline
[4] = dose: 50.0 mg/kg/injection, schedule: Q01DX009 (ip), vehicle: saline with Tween-80
[5] = dose: 50.0 mg/kg/injection, schedule: Q01DX009 (ip), vehicle: saline
[6] = dose: 100.0 mg/kg/injection, schedule: Q04DX003 (ip), vehicle: saline
[7] = dose: 200.0 mg/kg/injection, schedule: Q04DX003 (ip), vehicle: saline
[8] = dose: 100.0 mg/kg/injection, schedule: Q04DX003 (ip), vehicle: saline with Tween-80
[9] = dose: 200.0 mg/kg/injection, schedule: Q04DX003 (ip), vehicle: saline with Tween-80
[10] = dose: 400.0 mg/kg/injection, schedule: Q04DX003 (ip), vehicle: saline with Tween-80
[11] = dose: 50.0 mg/kg/injection, schedule: Q01DX001 (ip), vehicle: carboxymethylcellulose (CMC)
[12] = dose: 100.0 mg/kg/injection, schedule: Q01DX001 (ip), vehicle: carboxymethylcellulose (CMC)
[13] = dose: 200.0 mg/kg/injection, schedule: Q01DX001 (ip), vehicle: carboxymethylcellulose (CMC)
[14] = dose: 400.0 mg/kg/injection, schedule: Q01DX001 (ip), vehicle: carboxymethylcellulose (CMC)
[15] = dose: 100.0 mg/kg/injection, schedule: Q04DX003 (ip), vehicle: Klucel (hydroxypropylcellulose) (HPC)
[16] = dose: 200.0 mg/kg/injection, schedule: Q04DX003 (ip), vehicle: Klucel (hydroxypropylcellulose) (HPC)
[17] = dose: 400.0 mg/kg/injection, schedule: Q04DX003 (ip), vehicle: Klucel (hydroxypropylcellulose) (HPC)
[18] = dose: 100.0 mg/kg/injection, schedule: Q04DX002 (ip), vehicle: saline
[19] = dose: 100.0 mg/kg/injection, schedule: Q01DX009 (ip), vehicle: saline with Tween-80
[20] = dose: 50.0 mg/kg/injection, schedule: Q04DX003 (ip), vehicle: Klucel (hydroxypropylcellulose) (HPC)
[21] = dose: 50.0 mg/kg/injection, schedule: Q01DX001 (ip), vehicle: saline

Measured: T/C

COc1ccc([I+]c2ccc(OC)cc2)cc1
inactive: dose: 0.63 mg/kg/injection, schedule: Q01DX009 (ip), vehicle: water 100 % of control | dose: 1.25 mg/kg/injection, schedule: Q01DX009 (ip), vehicle: water 101 % of control | dose: 2.5 mg/kg/injection, schedule: Q01DX009 (ip), vehicle: water 105 % of control | dose: 2.5 mg/kg/injection, schedule: Q04DX003 (ip), vehicle: water 103 % of control | dose: 3.12 mg/kg/injection, schedule: Q01DX009 (ip), vehicle: saline 103 % of control | dose: 5.0 mg/kg/injection, schedule: Q04DX003 (ip), vehicle: water 108 % of control | dose: 6.25 mg/kg/injection, schedule: Q01DX009 (ip), vehicle: saline 107 % of control | dose: 10.0 mg/kg/injection, schedule: Q04DX003 (ip), vehicle: water 101 % of control | [1] 91 % of control | dose: 50.0 mg/kg/injection, schedule: Q04DX003 (ip), vehicle: acetone 103 % of control | [2] 111 % of control | dose: 100.0 mg/kg/injection, schedule: Q04DX003 (ip), vehicle: acetone 100 % of control | [3] 109 % of control

CC1(C)/C(=N\N=C2/C3CCC(C3)C2(C)C)C2CCC1C2
inactive: [1] 105 % of control | dose: 25.0 mg/kg/injection, schedule: Q01DX009 (ip), vehicle: saline 100 % of control | [4] 106 % of control | [5] 109 % of control | [6] 109 % of control | [7] 108 % of control

CN1CCN(C(=O)CCCCCCCCC(Br)CBr)CC1 (configuration not stated)
inactive: dose: 15.0 mg/kg/injection, schedule: Q01DX001 (ip), vehicle: saline 103 % of control

O=C(CCl)NC(=O)CCl
inactive: dose: 15.6 mg/kg/injection, schedule: Q01DX010 (ip), vehicle: other 97 % of control | dose: 31.3 mg/kg/injection, schedule: Q01DX009 (ip), vehicle: other 90 % of control | dose: 62.5 mg/kg/injection, schedule: Q01DX009 (ip), vehicle: other 92 % of control | [2] 103 % of control | [8] 103 % of control | dose: 125.0 mg/kg/injection, schedule: Q01DX010 (ip), vehicle: other 95 % of control | [3] 100 % of control | [9] 93 % of control

CCn1c(=S)[nH]c(=O)c2n[nH]nc21
inactive: [8] 88 % of control | [9] 89 % of control | [10] 93 % of control

S=C(N/N=C\c1ccc(Cl)cc1Cl)Nc1ccc2cn[nH]c2c1
inactive: [11] 102 % of control | [12] 98 % of control | [13] 86 % of control | [14] 91 % of control

N#C/C(=C/c1ccnc2ccccc12)c1ccccc1
inactive: [15] 101 % of control | [16] 101 % of control | [17] 95 % of control

N=NC(=O)c1ccccc1Nc1c(O)[nH]c2ccccc12
inactive: [12] 89 % of control | [13] 93 % of control | [14] 93 % of control

Nc1n[nH]c(N)n1.[Pt]
inactive: [5] 102 % of control | dose: 50.0 mg/kg/injection, schedule: Q04DX003 (ip), vehicle: saline 97 % of control | dose: 100.0 mg/kg/injection, schedule: Q01DX009 (ip), vehicle: saline 102 % of control | [6] 102 % of control | [7] 100 % of control

Cc1ncc([N+](=O)[O-])n1CCN1CCOCC1
inactive: [18] 102 % of control | dose: 200.0 mg/kg/injection, schedule: Q04DX002 (ip), vehicle: saline 96 % of control | dose: 400.0 mg/kg/injection, schedule: Q04DX002 (ip), vehicle: saline 98 % of control

CCOC(=O)c1cc(-c2ccccc2)c(-c2ccccc2)c(-c2ccccc2)c1-c1ccccc1
inactive: [11] 97 % of control | [12] 100 % of control | [13] 97 % of control

O=C(CNC(=O)Nc1nccs1)NNC(=O)Nc1cccc(C(F)(F)F)c1
inactive: [4] 94 % of control | [19] 105 % of control | dose: 200.0 mg/kg/injection, schedule: Q01DX009 (ip), vehicle: saline with Tween-80 102 % of control

CCCC(C)CN (configuration not stated)
inactive: [4] 100 % of control | [19] 104 % of control | [8] 100 % of control | [9] 98 % of control

COC(=O)NNc1ccccc1C(=O)OC
inactive: dose: 100.0 mg/kg/injection, schedule: Q04DX002 (ip), vehicle: saline with Tween-80 88 % of control | dose: 200.0 mg/kg/injection, schedule: Q04DX002 (ip), vehicle: saline with Tween-80 88 % of control | dose: 400.0 mg/kg/injection, schedule: Q04DX002 (ip), vehicle: saline with Tween-80 98 % of control

Nc1ccc2c(c1)/C(=N/O)c1cc(Cl)ccc1-2
inactive: [12] 109 % of control | [13] 103 % of control | [14] 100 % of control

CCCCCCCCN1CCCC(OC(=O)N(C)C)C1 (configuration not stated)
inactive: dose: 25.0 mg/kg/injection, schedule: Q04DX002 (ip), vehicle: saline 106 % of control | dose: 50.0 mg/kg/injection, schedule: Q04DX002 (ip), vehicle: saline 95 % of control | [18] 112 % of control

O=[N+]([O-])c1cccc(-n2cccc2)c1
inactive: dose: 100.0 mg/kg/injection, schedule: Q01DX001 (ip), vehicle: steriod suspending solution 101 % of control | dose: 200.0 mg/kg/injection, schedule: Q01DX001 (ip), vehicle: steriod suspending solution 103 % of control | dose: 400.0 mg/kg/injection, schedule: Q01DX001 (ip), vehicle: steriod suspending solution 97 % of control

COc1cc2c(cc1OC)C(C)=[N+](C)CC2
inactive: dose: 12.5 mg/kg/injection, schedule: Q04DX003 (ip), vehicle: Klucel (hydroxypropylcellulose) (HPC) 101 % of control | dose: 25.0 mg/kg/injection, schedule: Q04DX003 (ip), vehicle: Klucel (hydroxypropylcellulose) (HPC) 103 % of control | [20] 106 % of control

Cc1ncccc1CO
inactive: dose: 100.0 mg/kg/injection, schedule: Q04DX002 (ip), vehicle: gum acacia 104 % of control | dose: 200.0 mg/kg/injection, schedule: Q04DX002 (ip), vehicle: gum acacia 90 % of control | dose: 400.0 mg/kg/injection, schedule: Q04DX002 (ip), vehicle: gum acacia 87 % of control

COc1c(C)c(C)c(OC)c(CC(=O)O)c1C
inactive: [8] 93 % of control | [9] 90 % of control | [10] 93 % of control

O=C1c2sccc2-c2cccc3cccc1c23
inactive: [20] 98 % of control | dose: 100.0 mg/kg/injection, schedule: Q01DX009 (ip), vehicle: Klucel (hydroxypropylcellulose) (HPC) 98 % of control | [15] 96 % of control | dose: 200.0 mg/kg/injection, schedule: Q01DX009 (ip), vehicle: Klucel (hydroxypropylcellulose) (HPC) 106 % of control | [16] 102 % of control | dose: 400.0 mg/kg/injection, schedule: Q01DX009 (ip), vehicle: Klucel (hydroxypropylcellulose) (HPC) 103 % of control

Nc1nc2c(ncn2-c2cccc(NC(=O)Nc3cc(S(=O)(=O)F)ccc3Cl)c2)c(=O)[nH]1
inactive: dose: 12.5 mg/kg/injection, schedule: Q01DX001 (ip), vehicle: Klucel (hydroxypropylcellulose) (HPC) 87 % of control | dose: 25.0 mg/kg/injection, schedule: Q01DX001 (ip), vehicle: Klucel (hydroxypropylcellulose) (HPC) 96 % of control | dose: 50.0 mg/kg/injection, schedule: Q01DX001 (ip), vehicle: Klucel (hydroxypropylcellulose) (HPC) 89 % of control

CC1(C)C(C)(C)C12C=CC=C2
inactive: dose: 25.0 mg/kg/injection, schedule: Q01DX001 (ip), vehicle: saline 104 % of control | [21] 102 % of control | [2] 101 % of control

O=C1C2C3C=CC(C3)C2C(=O)N1c1ccccc1 (configuration not stated)
inactive: [8] 96 % of control | [9] 101 % of control | [10] 107 % of control

Cc1cccc(C(O)C(=O)O)c1 (configuration not stated)
inactive: dose: 75.0 mg/kg/injection, schedule: Q01DX001 (ip), vehicle: acetone 94 % of control | dose: 150.0 mg/kg/injection, schedule: Q01DX001 (ip), vehicle: acetone 92 % of control

CC(=O)Nc1ccc(C(=O)C[n+]2ccc3ccccc3c2)cc1
inactive: [15] 97 % of control | [16] 92 % of control | [17] 94 % of control

Cc1c(/C=N/NC(=O)CCCC(=O)N/N=C/c2c(C)n(C)n(-c3ccccc3)c2=O)c(=O)n(-c2ccccc2)n1C
inactive: [21] 102 % of control | [2] 93 % of control
